This note sets out measurements from patent US20030170287A1, “Drug delivery systems for the prevention and treatment of vascular diseases” (priority 2002, published 2003).

The structures appear in SMILES notation.

Data set [1] deals with balloon injured rat carotid arteries. Nature of the data set: Inhibition of late neointimal lesion formation in the 28 day rat carotid artery balloon injury model. The data set is classed as in vivo. Particulars: for percent inhibition of neointimal lesion formation: 28 days post-balloon injury. The protocol:
A1. Inhibition of Late Neointimal Lesion Formation in the 28 Day Rat Carotid Artery Balloon Injury Model
Compounds of formula I are tested in the following rat model.
Rats are dosed orally with placebo or a compound of formula I. Daily dosing starts 3 days prior to surgery and continues for 31 days. Rat carotid arteries are balloon injured using a method described by Clowes et al. Lab. Invest. 1983;49;208-215. Following sacrifice at 28 days post-balloon injury, carotid arteries are removed and processed for histologic and morphometric evaluation. […] For example for 40-O-(2-hydroxyethyl)-rapamycin administered at 0.5, 1.0, and 2.0 mg/kg, the percent inhibition is similar at all three doses: inhibition is 31% at the lowest dose (0.5 mg/kg) and 39% at the highest dose (2.0 mg/kg). Compounds of formula I, e.g. 40-O-(2-hydroxyethyl)-rapamycin, have the beneficial effect to inhibit lesions at 4 weeks post-ballooning.

The test system of data set [2] is New Zealand White rabbit iliac arteries (balloon injury and stent). Put plainly: Inhibition of restenosis at 28 days in the rabbit iliac stent model. The format is in vivo. How it is done:
A.2 Inhibition of Restenosis at 28 Days in the Rabbit Iliac Stent Model
A combined angioplasty and stenting procedure is performed in New Zealand White rabbit iliac arteries. Iliac artery balloon injury is performed by inflating a 3.0 x 9.0 mm angioplasty balloon in the mid-portion of the artery followed by “pull-back” of the catheter for 1 balloon length. Balloon injury is repeated 2 times, and a 3.0×12 mm stent is deployed at 6 atm for 30 seconds in the iliac artery. Balloon injury and stent placement is then performed on the contralateral iliac artery in the same manner. A post-stent deployment angiogram is performed. All animals receive oral aspirin 40 mg/day daily as anti-platelet therapy and are fed standard low-cholesterol rabbit chow. Twenty-eight days after stenting, animals are anesthetized and euthanized and the arterial tree is perfused at 100 mmHg with lactated Ringer's for several minutes, then perfused with 10% formalin at 100 mmHg for 15 minutes. The vascular section between the distal aorta and the proximal femoral arteries is excised and cleaned of periadventitial tissue. The stented section of artery is embedded in plastic and sections are taken from the proximal, middle, and distal portions of each stent. All sections are stained with hematoxylin-eosin and Movat pentachrome stains. Computerized planimetry is performed to determine the area of the internal elastic lamina (IEL), external elastic lamina (EEL) and lumen. The neointima and neointimal thickness is measured both at and between the stent struts. The vessel area is measured as the area within the EEL. Data are expressed as mean±SEM. Statistical analysis of the histologic data is accomplished using analysis of variance (ANOVA) due to the fact that two stented arteries are measured per animal with a mean generated per animal. A P<0.05 is considered statistically significant.
A compound of formula I, e.g. 40-O-(2-hydroxyethyl)-rapamycin, is administered orally by gavage at a loading dose of 1.5 mg/kg one day prior to stenting, then dosed at 0.75 mg/kg/day from the day of stenting until day 27 post-stenting. In this model, the treatment with the compounds of formula I results in a marked reduction in the extent of restenotic lesion formation: for example, the treatment with 40-O-(2-hydroxyethyl)-rapamycin produces a significant (P<0.03) reduction in neointimal thickness (40% reduction), neointimal area (24% reduction), and percent arterial stenosis (26% reduction) with a significant 32% increase in lumen area. There is extensive neointimal formation in placebo-treated animals at 28 days, with the lesions consisting of abundant smooth muscle cells in proteoglycan/collagen matrix and apparent full endothelial healing.

Data set [3] concerns ballooned carotid of Sprague Dawley rats. Put plainly: Inhibition of restenosis at 14 days in the rat carotid stent model (perivascular local delivery). The conditions noted are these: administered locally (perivascular, osmotic pump) at 10 to 200 μg/day. The format is in vivo, Sprague Dawley rat. How it is done: A.3 Inhibition of Restenosis at 14 Days in the Rat Carotid Stent Model
Male Sprague Dawley rats weighing […] are housed individually and allowed to acclimate prior to surgery. All animals receive standard rat chow and water ad libitum. Group size is 12 animals per group.
The drug(s) administration is perivascular. A segment of ballooned carotid is encircled with a 1 cm length of silastic tubing (0.25 inch inside diameter, 0.47 inch outside diameter) to which is attached a catheter which feeds into an osmotic pump containing either compound or vehicle. This delivery system provides continuous, local delivery to the adventitia of the wrapped portion of vessel. Local drug(s) administration ranges between 5 μg and 10 mg, locally per day, depending on the solubility characteristics of the individual compounds. […]
Animals are killed at 14 days post-balloon injury. […] Animals are killed by administration of an overdose of ketamine and rompun, the osmotic pumps are recovered and the volume of remaining content is recorded to ensure that pump failure has not occurred.
Carotid arteries are excised and immersion fixed, then transferred to Ringer's solution. […] The intimal lesion area and the medial area are determined by measurement of the internal elastic lamina, the external elastic lamina and the vessel/lumen interface.

Data set [4] concerns dialysis patients with indwelling large bore catheter. Put plainly: Prevention or reduction of vascular access dysfunction after insertion of an indwelling catheter into the vein of a patient. The format is in vivo. Particulars: daily dose of 0.75 to 20 mg, 3 month treatment, observation period of 6 months. The protocol:
A5. Prevention or Reduction of Vascular Access Dysfunction in Association with the Insertion of an Indwelling Catheter into the Vein of a Patient
One hundred fifty prospective dialysis patients, who undergo successful insertion of an indwelling, large bore catheter, into a vein are selected for the study. […] In addition, patients may also be given a calcium antagonist, nitrates and/or anti-platelet agents. These drugs are administered for 3 consecutive months following catheter insertion.

Data set [5] in a line: Release of 40-O-(2-hydroxyethyl)-rapamycin from coated stents. Particulars: PBS pH 7.4 or PEG/water 40/60 v/v, 37° C., solutions changed daily; stable = less than 10% of variation of the drug release. The format is physicochemical. The protocol:
Four 2 cm pieces of coated stents as described above are placed into 100 ml of phosphate buffer solution (PBS) having a pH of 7.4. Another 4 pieces from each series are placed into 100 ml polyethylene glycol (PEG)/water solution (40/60 v/v, MW of PEG=400). The stent pieces are incubated at 37° C. in a shaker. The buffer and PEG solutions are changed daily and different assays are performed on the solution to determine the released 40-O-(2-hydroxyethyl)-rapamycin concentrations. Such assays can show a stable release of 40-O-(2-hydroxyethyl)-rapamycin from coated stents for more than 45 days. By the term “stable release of 40-O-(2-hydroxyethyl)-rapamycin” is meant less than 10% of variation of the drug release. Controlled release techniques used by a person skilled in the art allow an unexpected easy adaptation of the required drug release rate. Thus, by selecting appropriate amounts of reactants in the coating mixture it is possible to easily control the bioeffectiveness of the rapamycin or rapamycin derivastive coated stents.

The mark [6] stands for this setting: oral loading dose 1.5 mg/kg, then 0.75 mg/kg/day to day 27, 28 days after stenting, P<0.03.

On to `CO[C@H]1C[C@@H]2CC[C@@H](C)[C@@](O)(O2)C(=O)C(=O)N2CCCC[C@H]2C(=O)O[C@H]([C@H](C)C[C@@H]2CC[C@@H](OCCO)[C@H](OC)C2)CC(=O)[C@H](C)/C=C(\C)[C@@H](O)[C@@H](OC)C(=O)[C@H](C)C[C@H](C)/C=C/C=C/C=C/1C` [40-O-(2-hydroxyethyl)-rapamycin], for which the “percent inhibition of neointimal lesion formation” value in data set [1] (0.5 mg/kg oral daily) stood at 31%. Further, the “percent inhibition of neointimal lesion formation” value in data set [1] (2.0 mg/kg oral daily) amounted to 39%. Also, in data set [1] (oral dose of from 0.5 to 2.0 mg/kg), the “neointimal lesion formation at 28 days following balloon injury” value is “significantly reduce neointimal lesion formation”. For the same compound, in data set [2] (majority of arterial segments, 28 days after stenting), the “histology of the intima in arterial segments” value was “the intima is well healed”. Besides, the “endothelialization of stented arteries (scanning electron microscopic analysis)” value in data set [2] (n=4 arteries, oral 1.5 mg/kg loading, 0.75 mg/kg/day, 28 days) was found to be 84%. For the same compound, the “increase in lumen area” value in data set [2] (oral loading dose 1.5 mg/kg, then 0.75 mg/kg/day to day 27, 28 days after stenting) worked out at 32%. Further, in data set [2] (setting [6]), the “reduction in neointimal area” value is given as 24%, the “reduction in neointimal thickness” value was 40% and the “reduction in percent arterial stenosis” value came to 26%. The “neointimal lesion formation at 14 days post ballooning” value in data set [3] was “reduces neointimal lesion formation”. Besides, the “prevention or reduction of vascular access dysfunction after catheter insertion” value in data set [4] was “demonstrate the efficacy”. Also, the “duration of stable release from coated stents” value in data set [5] was “more than 45 days”.
